Where two headings read alike, the source gives them in different places.
Assays:
[1] = system: LPS-induced microglia activation; test: Image-based assay of LPS-induced microglia activation (HTS and dose response); assay type: cell-based, rat
[2] = system: fibrin- and LPS-induced microglia activation; test: cells; assay type: cell-based, rat; settings: for inhibition at 10 µM: Rattus norvegicus
human macrophages = test: ROS production (DHE) in fibrin-stimulated human macrophages; assay type: cell-based; settings: fibrin 24 h, 5 μM inhibitor, FIG. 6b
Protocol: Human macrophage cultures. Human peripheral blood mononuclear cells (PBMCs) were purchased from AllCells, LLC (Alameda, Calif.). To differentiate PBMC into monocyte-derived macrophages, 2×10^6 PBMC/mL were plated in RPMI-1640 media supplemented with 10% FBS, 1% penicillin-streptomycin (Corning), and 50 ng/ml human M-CSF (300-25, Peprotech) in tissue-culture treated dishes (Corning). After 24 h, non-adherent cells were removed, and adherent cells were cultivated for 7-8 additional days at 37° C. in 5% CO2 to promote their full differentiation into macrophages. Oxidant detection with DHE. Intracellular concentrations of ROS were measured using dihydroethidium (DHE) as described (9). Cultured BMDMs or human macrophages were incubated in medium containing 5 μM DHE (Invitrogen) for 30 min Cells were plated on 96-well, black μ-clear-bottom microtiter plates (Greiner Bio-One) pre-coated with 25 μg/ml fibrin. For GGT inhibition, BMDMs or human macrophages were pre-incubated with 5 μM acivicin or GGsTop for 1 h, and the cells were plated on fibrin-coated 96-well plates as described above. PBS was used as vehicle control. Cells were then incubated for 24-48 h and fixed with 4% PFA for 10 min. The DHE fluorescence was detected at an excitation/emission wavelength of 518 nm/605 nm using a SpectraMax M5 microplate reader (Molecular Devices) with SoftMax Pro 5.2 software (Phoenix Technologies Ltd.).

[3] = assay type: in vivo, mouse; settings: healthy mice, 10 days, FIG. 12
Protocol: Blood sampling and hematological analysis. Hematological analysis was carried out for mice treated with saline or acivicin for 10 days. Blood samples were collected from the heart of each anesthetized mouse via cardiac puncture. The complete blood cell counts were measured with an automated blood count analyzer (Hemavet, Drew Scientific Inc).

[4] = system: PLP139-151 EAE in SJL/J mice; test: Relapsing PLP139-151 EAE in SJL/J mice, clinical scores; assay type: in vivo, mouse; settings: therapeutic, daily from peak of initial paralytic episode, FIG. 7c
adoptive transfer EAE = test: Adoptive transfer EAE induced by PLP139-151-specific T cells, clinical scores; assay type: in vivo, mouse; settings: prophylactic, 5 mg/kg daily from day 0, FIG. 7d
[5] = Serum protein carbonyl content assay in MOG35-55 EAE mice; assay type: in vivo, mouse; settings: FIG. 7g
Protocol: Protein carbonyl content assay. Blood was isolated from EAE mice via terminal cardiac puncture, and serum levels of protein carbonylation were measured with OxiSelect™ Protein Carbonyl ELISA (Cell Biolabs) according to the manufacturer's protocol. The absorbance at 450 nm was measured using a SpectraMax M5 microplate reader (Molecular Devices) with SoftMax Pro 5.2 software (Phoenix Technologies Ltd.).

chronic NOD MOG35-55 EAE [6] = test: Chronic MOG35-55 EAE in NOD mice, clinical scores; assay type: in vivo, mouse; settings: therapeutic, daily from day 80 to day 113, FIG. 8b
chronic NOD MOG35-55 EAE [7] = test: Immunohistochemistry of spinal cord in chronic NOD MOG35-55 EAE; assay type: in vivo, mouse
GGT = GGT activity in substantia nigra after stereotactic LPS injection; assay type: in vivo, mouse; settings: 5 mg/kg i.p., 12 h after LPS, FIG. 15a
Protocol: Stereotactic LPS injection and drug treatment. Mice were anaesthetized with isoflurane and placed in a stereotactic apparatus (David Kopf Instruments). LPS (Sigma-Aldrich) was dissolved in endotoxin-free distilled water (HyClone) and was diluted to 1 μg/ml with PBS. LPS (2 μl of 1 μg/ml) or PBS was slowly injected (0.3 μl/min) using a 10-μl Hamilton syringe attached to a 33-G needle into the substantia nigra at coordinates (anteroposterior, 3.0 mm; mediolateral, 1.3 mm; dorsoventral, 4.7 mm from the bregma, according to Paxinos and Watson) Animals received acivicin (5 mg/kg) or saline intraperitoneally beginning 5 days before LPS injection and for 7 days after LPS injection. After 12 h of the LPS injection, the substantia nigra area was immediately collected on ice and kept at −80° C. for later analysis of GGT activity. After 7 d of the LPS injection, mice were perfused with 4% PFA, and the brains were post-fixed in 4% PFA overnight at 4° C. […] Images were acquired with all-in-one BZ-X700 fluorescence microscope. Images were quantified using NIH ImageJ (version 1.50) by blinded observers.

in vitro [8] = settings: rat, Cell Toxicity IC50 (uM) [cFib assay], cFib assay
in vitro [9] = settings: rat
[10] = cited from earlier work
primary rat microglia [11] = test: Cell toxicity (dead cells, size <150 μm2) in LPS assay; settings: primary microglia HTS, LPS stimulation; decreased size (<150 μm^2) as marker of toxicity
primary rat microglia [12] = test: Cell toxicity (dead cells, size <150 μm2) in coated fibrin (cFib) assay;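 for Fibrin % cell toxicity: share of dead cells sized under 150 µm2 at 10 µM in fibrin-stimulated microglia HTS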

## N[C@H](C(=O)O)[C@@H]1CC(Cl)=NO1 [Acivicin, (2S)-2-amino-2-[(5S)-3-chloro-4,5-dihydro-1,2-oxazol-5-yl] acetic acid]
[1]; Rattus norvegicus, Microglia, 48 h, Table 1, dose response 0.001-20 μM, triplicates, primary rat microglia, 48 h, read-out: LPS IC50
  IC50: 1 µM
[1]; Rattus norvegicus, Microglia, 48 h, primary microglia HTS, LPS stimulation, increased cell size (>800 μm^2) as marker of activation, read-out: LPS % inhibition
  inhibition at 10 µM: 93%
[1]; Rattus norvegicus, Microglia, LPS-induced microglia activation, dose response, read-out: LPS IC50 (uM) (Suppl. Table 7)
  IC50: 1 µM
[1]; Rattus norvegicus, Microglia, Table 7, read-out: LPS_IC50
  IC50: 1.66 µM
[1]; Rattus norvegicus, Microglia, dose response, LPS-induced microglia activation, read-out: LPS IC50
  IC50: 1 µM
[1]; dose-dependent, FIG. 6a
  LPS-induced microglial activation: inhibited
[2]; HTS of 1907 compounds, quadrant by fibrin and LPS inhibition
  Quadrant (FIG. 5b): Q2
[2]; Microglia, HTS hit classification, read-out: Hit
  inhibition at 10 µM: > 50%
[2]; hit classification in microglia HTS, read-out: Cherry-picked Hit (Suppl. Table 7)
  inhibition at 10 µM: > 50%
[2]; Table 1, screen at 10 μM
  Quadrant (FIG. 5b): Q2
[2]; Table 2, screen at 10 μM
  Quadrant (FIG. 5b): Q2
[2]; Table 7, fib = fibrin, LPS, tox = toxicity
  Activity: fib/LPS
[2]; quadrant by fibrin and LPS inhibition in HTS of 1907 compounds
  Quadrant (FIG. 5b): Q2
Human macrophages
  ROS generation (DHE) in human macrophages: decreased
[3]
  total cell blood count in vivo: did not affect
[4]
  clinical severity during relapses: suppressed
Adoptive transfer EAE
  disease onset and severity: delayed
[5]
  serum protein carbonyl content: markedly reduced
Chronic NOD MOG35-55 EAE [6]
  progression, clinical signs: suppressed progression
Chronic NOD MOG35-55 EAE [7]; chronic phase, FIG. 8c
  demyelination (MBP): reduced
Chronic NOD MOG35-55 EAE [7]; chronic phase, FIG. 8d
  NADPH oxidase subunit gp91-phox: reduced
  axonal damage (SMI-32): reduced
  inducible nitric oxide synthase (iNOS): reduced
Chronic NOD MOG35-55 EAE [7]; mouse, in vivo
  expression of GGT1: reduced
GGT
  GGT activity in SN after LPS injection: blocked
In vitro [8]
  IC50: > 20 µM
In vitro [9]
  IC50: > 20000 nM
[10]
  toxicity in anti-cancer trials: dose limiting toxicity
Primary rat microglia [11]
  LPS % cell toxicity: 4%
Primary rat microglia [12]; <20 μM, FIG. 6a
  cell toxicity in microglia dose response: without cell toxicity
Primary rat microglia [12]; primary microglia HTS, fibrin stimulation, decreased size (<150 μm^2) as marker of toxicity
  Fibrin % cell toxicity: 2%

— US20210330611A1, “THERAPY FOR NEUROLOGICAL DISEASES/DISORDERS” (priority 2020, published 2021)
